Here are results for four molecules from patent US10040781B2, “Tank-binding kinase inhibitor compounds” (Gilead Sciences, Inc., priority 2014, dated 2018).

One experiment deals with TBK1 (Homo sapiens (Human), UniProt Q9UHD2). Nature of the experiment: TBK1 TR-FRET enzymatic assay.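 Note: phosphorylation of a biotinylated Ser/Thr peptide by purified full-length recombinant TBK1, read by TR-FRET after 240 min at 25 °C, IC50 is the geometric mean of at least four runs.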
A further experiment addresses IKKε (Homo sapiens (Human), UniProt Q14164). Nature of the experiment: IKKε TR-FRET enzymatic assay. In kind it is biochemical. The conditions noted are these: read-out: IKKe IC50.
For a further experiment, the target named is hJAK2 (Homo sapiens (Human), UniProt O60674). Kind of experiment: hJAK2 LANCE TR-FRET enzymatic assay. In kind it is biochemical. The following applies: read-out: JAK2 IC50.
hJAK2, sequence (O60674 whole entry): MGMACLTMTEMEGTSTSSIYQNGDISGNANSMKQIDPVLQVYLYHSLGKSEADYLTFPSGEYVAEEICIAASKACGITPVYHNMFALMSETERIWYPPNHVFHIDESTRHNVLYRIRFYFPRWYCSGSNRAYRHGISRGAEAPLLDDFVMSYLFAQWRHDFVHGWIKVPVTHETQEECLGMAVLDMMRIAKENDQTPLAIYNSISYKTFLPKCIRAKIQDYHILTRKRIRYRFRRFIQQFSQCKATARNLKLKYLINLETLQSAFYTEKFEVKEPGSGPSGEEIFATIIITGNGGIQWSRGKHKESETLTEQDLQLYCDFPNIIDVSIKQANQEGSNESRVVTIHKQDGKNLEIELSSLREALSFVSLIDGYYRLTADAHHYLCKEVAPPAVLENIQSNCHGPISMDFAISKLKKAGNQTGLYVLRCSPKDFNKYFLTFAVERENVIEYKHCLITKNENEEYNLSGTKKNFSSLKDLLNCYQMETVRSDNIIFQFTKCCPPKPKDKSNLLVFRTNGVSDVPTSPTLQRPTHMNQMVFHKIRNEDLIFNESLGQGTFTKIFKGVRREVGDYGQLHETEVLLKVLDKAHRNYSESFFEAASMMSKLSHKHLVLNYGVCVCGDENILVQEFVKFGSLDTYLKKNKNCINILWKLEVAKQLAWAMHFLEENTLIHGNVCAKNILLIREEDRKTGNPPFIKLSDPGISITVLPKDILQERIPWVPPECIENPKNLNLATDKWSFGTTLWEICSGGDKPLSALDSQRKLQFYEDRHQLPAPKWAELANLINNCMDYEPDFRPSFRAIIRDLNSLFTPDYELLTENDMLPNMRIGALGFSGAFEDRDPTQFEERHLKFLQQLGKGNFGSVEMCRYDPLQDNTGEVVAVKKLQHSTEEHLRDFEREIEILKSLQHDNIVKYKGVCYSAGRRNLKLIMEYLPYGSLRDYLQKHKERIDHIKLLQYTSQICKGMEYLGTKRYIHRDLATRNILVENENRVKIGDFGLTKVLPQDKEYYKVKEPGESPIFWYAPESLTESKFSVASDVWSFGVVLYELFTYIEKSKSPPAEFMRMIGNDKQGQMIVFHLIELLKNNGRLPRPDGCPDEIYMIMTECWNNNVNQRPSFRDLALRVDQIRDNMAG

TBK1, sequence (Q9UHD2 whole entry): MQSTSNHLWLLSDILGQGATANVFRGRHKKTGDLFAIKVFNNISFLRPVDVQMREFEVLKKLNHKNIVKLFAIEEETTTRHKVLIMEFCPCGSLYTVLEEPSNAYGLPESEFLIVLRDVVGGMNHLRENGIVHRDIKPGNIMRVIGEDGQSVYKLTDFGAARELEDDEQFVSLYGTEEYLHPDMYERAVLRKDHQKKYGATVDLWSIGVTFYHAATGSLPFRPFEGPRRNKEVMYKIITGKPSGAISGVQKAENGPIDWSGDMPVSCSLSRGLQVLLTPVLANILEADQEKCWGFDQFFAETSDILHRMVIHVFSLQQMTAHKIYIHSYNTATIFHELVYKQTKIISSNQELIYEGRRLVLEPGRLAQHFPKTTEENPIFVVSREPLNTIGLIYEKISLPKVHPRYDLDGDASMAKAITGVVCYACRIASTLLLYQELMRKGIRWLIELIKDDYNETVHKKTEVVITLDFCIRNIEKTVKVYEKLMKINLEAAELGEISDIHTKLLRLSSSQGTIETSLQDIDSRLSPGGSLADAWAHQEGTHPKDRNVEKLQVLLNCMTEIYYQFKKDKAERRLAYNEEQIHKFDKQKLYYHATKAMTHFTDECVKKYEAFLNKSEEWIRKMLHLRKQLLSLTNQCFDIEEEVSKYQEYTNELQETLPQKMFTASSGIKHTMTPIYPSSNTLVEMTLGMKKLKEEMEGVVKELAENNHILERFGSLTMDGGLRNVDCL
IKKε, sequence (Q14164 whole entry): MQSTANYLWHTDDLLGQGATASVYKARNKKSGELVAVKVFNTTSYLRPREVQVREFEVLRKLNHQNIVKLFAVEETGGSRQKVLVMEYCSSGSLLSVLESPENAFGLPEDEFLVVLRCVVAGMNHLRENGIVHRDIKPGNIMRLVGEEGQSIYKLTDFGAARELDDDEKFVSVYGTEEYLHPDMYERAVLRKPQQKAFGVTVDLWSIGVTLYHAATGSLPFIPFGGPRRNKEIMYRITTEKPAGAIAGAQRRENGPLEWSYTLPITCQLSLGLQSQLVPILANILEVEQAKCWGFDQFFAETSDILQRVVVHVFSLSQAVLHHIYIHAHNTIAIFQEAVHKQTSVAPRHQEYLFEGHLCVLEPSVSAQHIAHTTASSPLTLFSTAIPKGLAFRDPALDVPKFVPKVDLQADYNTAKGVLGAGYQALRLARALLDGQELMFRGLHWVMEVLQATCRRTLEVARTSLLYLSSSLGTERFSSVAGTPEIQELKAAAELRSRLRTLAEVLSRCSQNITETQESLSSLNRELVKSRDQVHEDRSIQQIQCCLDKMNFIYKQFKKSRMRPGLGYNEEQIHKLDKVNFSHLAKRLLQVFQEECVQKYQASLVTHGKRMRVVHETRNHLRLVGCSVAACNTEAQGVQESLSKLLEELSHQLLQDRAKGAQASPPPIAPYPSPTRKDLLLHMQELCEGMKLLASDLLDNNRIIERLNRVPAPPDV

Consider `N#Cc1cc(-c2ncnc(Nc3ccc(N4CCN(C5COC5)CC4)cc3)n2)ccc1N1CCC2(CCO2)C1` (stereo not drawn) [Example 207, 5-(4-((4-(4-(oxetan-3-yl)piperazin-1-yl)phenyl)amino)-1,3,5-triazin-2-yl)-2-(1-oxa-6-azaspiro[3.4]octan-6-yl)benzonitrile], for which the IC50 stood at 38 nM against TBK1, 128 nM on IKKε and 258 nM at hJAK2.

Take `N#Cc1cc(-c2ncnc(Nc3ccc(N4CCN(C5COC5)CC4)cc3)n2)ccc1OC1CCN(C(=O)CNC=O)CC1` [Example 51, N-(2-(4-(2-cyano-4-(4-((4-(4-(oxetan-3-yl)piperazin-1-yl)phenyl)amino)-1,3,5-triazin-2-yl)phenoxy)piperidin-1-yl)-2-oxoethyl)formamide]: the IC50 was determined as 26 nM on TBK1, 79 nM at IKKε and 408 nM at hJAK2.

Regarding `CC1(C)CN(C(=O)CO)C[C@@H](F)[C@H]1Oc1ccc(-c2ncnc(Nc3ccc(N4CCN(C5COC5)CC4)cc3)n2)cc1C#N` (single isomer, unassigned) [Example 179], the IC50 against TBK1 worked out at 8 nM; on IKKε, 13 nM; at hJAK2, 234 nM.

Take `COc1cc(Nc2ncnc(-c3ccc(OC4CCN(C(=O)[C@H](C)O)CC4)c(C#N)c3)n2)ccc1N1CCN(C2COC2)CC1` [Example 281, (S)-2-((1-(2-hydroxypropanoyl)piperidin-4-yl)oxy)-5-(4-((3-methoxy-4-(4-(oxetan-3-yl)piperazin-1-yl)phenyl)amino)-1,3,5-triazin-2-yl)benzonitrile]: the figures for the IC50 against TBK1, at IKKε and on hJAK2 were 2 nM, 8 nM and 185 nM, respectively.
